From patent publication US12209252B2, “Transduction buffer” (Koninklijke Nederlandse Akademie van Wetenschappen, priority 2015, dated 2025)

Columns and labels:
[1] = test system: KBM7 cells carrying an out-of-frame tdTomato reporter; assay: Effect of carbohydrate supplements on Cas9/sgRNA transduction (tdTomato reporter); format: cell-based; conditions: carbohydrate 0.8% w/v, 40 minutes, 327 mM NaCl, 200 mM GABA, read two days after
Procedure: (§1) KBM7 cells carrying an out-of-frame tdTomato reporter were transduced for 40 minutes with recombinant Cas9 protein and sgRNA targeting the out-of-frame region in the tdTomato reporter. Transductions were carried out in 1× iTOP transduction buffer, supplemented with 327 mM NaCl and 200 mM GABA. Indicated carbohydrates were added at 0.8% w/v final concentration. Two days after transduction, tdTomato fluorescence was determined by flow cytometry analysis.
as §1, with “The effect of various carbohydrates on transduction efficiency was tested in the iTOP buffer. KBM7” for “KBM7”, “carbohydrates (sorbitol, lactulose, sucrose, trehalose and myo-inositol)” for “carbohydrates”, “analysis. Higher levels of tdTomato fluorescence were indicative of greater transduction efficiency.” for “analysis.”

[2] = 700 mOsm/Kg, non-salt compound alone; previously tested (WO2015/028969); cited from earlier work
MEFs = assay: BrdU incorporation 24 hrs after beta-lactamase transduction; format: cell-based, mouse; conditions: see FIGS. 6A-6D
Procedure: Third column: Relative β-lactamase protein transduction activity; Fourth column: Relative BrdU incorporation 24 hrs after β-lactamase transduction. MEFs were transduced for 3 hours with 1 μM β-lactamase protein at a NaCl adjusted osmolality of 700 mOsm/Kg in transduction buffer containing 30 mM of Glycerol and 15 mM of Glycine and 25 mM of the indicated transduction compounds. β-lactamase incorporation of the reference compound (NDSB201, #01) was set at 100%. Open circles indicate relative BrdU incorporation by the transduced cells. BrdU incorporation of untransduced cells was set at 100% and BrdU incorporation of mitomycin C-treated cells was set at 0%.

[3] = test system: sodium-hydrogen antiporter (Nhe) proteins; assay: Inhibition of protein transduction by Na+/H+ exchange inhibitors; format: cell-based
From the text: Without wishing to be bound by theory, the inventors hypothesise that activation of such Nhe transporters leads to activation of the macropinocytosis pathway, which is the first step in the transduction process. Thus, in some embodiments, the salt is any salt able to bind to and/or activate a sodium/hydrogen (Na+/H+) transporter, such as an Nhe transporter, for example an Nhe1 transporter. Nhe1 is a ubiquitous membrane-bound enzyme involved in volume- and pH-regulation of vertebrate cells.

Structure (SMILES): OC[C@H]1O[C@@H](O[C@@H]2[C@@H](CO)OC(O)(CO)[C@H]2O)[C@H](O)[C@@H](O)[C@H]1O (mixture of isomers) [lactulose]
- transduction efficiency (tdTomato fluorescence, in words) [1]: closely followed
- induction of protein transduction [2]: failed to induce protein transduction

Structure (SMILES): NCCCC(=O)O [#20]
- cell viability / proliferation / survival (in words) (MEFs): particularly good cell survival rates

Structure (SMILES): CN(C)c1nc(N)c(C(=O)N=C(N)N)nc1Cl [DMA]
- inhibition of protein transduction [3]: strongly inhibited

Structure (SMILES): CCN(c1nc(N)c(C(=O)NC(=N)N)nc1Cl)C(C)C [EIPA]
- inhibition of protein transduction [3]: strongly inhibited

Structure (SMILES): OC[C@@H](O)[C@@H](O)[C@H](O)[C@H](O)CO [mannitol]
- induction of protein transduction [2]: failed to induce protein transduction

Structure (SMILES): O[C@H]1[C@H](O)[C@@H](O)[C@H](O)[C@@H](O)[C@H]1O [myo-inositol]
- transduction efficiency (tdTomato fluorescence, in words) [1]: closely followed

Structure (SMILES): OC[C@@H](O)[C@@H](O)[C@H](O)[C@@H](O)CO [sorbitol]
- transduction efficiency (tdTomato fluorescence, in words) [1]: greatest improvement
- induction of protein transduction [2]: failed to induce protein transduction

Structure (SMILES): OC[C@H]1O[C@@](CO)(O[C@H]2O[C@H](CO)[C@@H](O)[C@H](O)[C@H]2O)[C@@H](O)[C@@H]1O [sucrose]
- transduction efficiency (tdTomato fluorescence, in words) [1]: improve transduction efficiency
- induction of protein transduction [2]: failed to induce protein transduction

Structure (SMILES): OC[C@H]1O[C@H](O[C@H]2O[C@H](CO)[C@@H](O)[C@H](O)[C@H]2O)[C@H](O)[C@@H](O)[C@@H]1O [trehalose]
- transduction efficiency (tdTomato fluorescence, in words) [1]: greatest improvement
